Reference: US12617783B2, “Heterocyclic GLP-1R agonists” (BIOMEA FUSION, INC., priority 2024, dated 2026)
One block for each molecule: values may come before it.

Legend:
human GLP-1R = target: T1, human GLP-1R (Homo sapiens, UniProt P43220); experiment: GLP-1R cAMP assay (Example B1b, HTRF, 30 min at 37°); assay type: cell-based; conditions: cAMP accumulation in HEK293 expressing human GLP-1R, no BETP, 30 min at 37° (Method B1b), Table 1
T1 construct: host or cells: HEK293
Procedure: Assay was carried out with HEK293 expressing human GLP-1R using HTRF assay, developed by Wuxi Apptec. The method is a competitive assay between native cAMP produced by the cells and exogenous cAMP labeled with a proprietary dye d2. The tracer binding is visualized by a mAb anti-cAMP labeled with Cryptate. The signal (i.e. energy transfer) is inversely proportional to the concentration of CAMP in either standard or experimental sample. Compounds were tested in the absence of BETP. Ten microliter of cell suspension in assay buffer (5 mM HEPES, 500 μM IBMX, 0.1% BSA) were added to each well (1,000 cells per well) in a low volume 384-well plate for the assay. Serially diluted compounds were added in 100 nL volume to duplicate wells, by Labcyte Echo. GLP-1 (7-37) was used as positive control. Assay plate was incubated for 30 minutes at 37°. Stock of cAMP Detection Solution was prepared by mixing 38 parts of cAMP lysis buffer, 1 part of cAMP-D2, 1 part of anti-cAMP cryptate reagent (Cisbio #62AM4PEJ). Ten microliter of the cAMP Detection Solution was added to each well, and the assay plate was incubated for 1 hour at room temperature in the dark. Plates were read on Envision plate reader. The data were analyzed by ScreenUltra in Dotmatics, with % activation expressed using following formula: (Signal ratio […]*10000−negative control)/(postive control−negative control)*100. Dose response curves were plotted and EC50 values calculated by non-linear regression using 4-parameter fit. The potency (EC50) values for cAMP accumulation in HEK293 cells are reported in the Table 1 below (for compounds ID 610-708).

[1] = Pharmacokinetic analysis in male SD rats; assay type: in vivo
Procedure: The rats have free access to food and water. Blood samples were collected pre-dose and 0.083, 0.25, 0.5, 1, 2, 4, 8, 24 hours post dose for i.v. administration group. Blood samples were also collected pre-dose and 0.25, 0.5, 1, 2, 4, 8, and 24 hours after administration in orally dosing group.

[2] = Pharmacokinetic analysis in cynomolgus monkeys
Procedure: Pharmacokinetic Analysis of the Compound 36, Compound 121, Compound 214, and Orforglipron in Cynomolgus Monkeys
Non naïve male cynomolgus monkeys (n=3 monkeys/group) were fasted overnight and fed 4 hours post dose. Compounds of the present application were formulated in 10% polyethylene glycol 400/10% propylene glycol/80% glycine buffer (100 mM glycine, 64 mM NaOH, pH 10).
The compound was administered by i.v. infusion for 30 minutes at 0.12 mg/kg (dose volume 1 mL/kg at a speed of 2 mL/kg/h) or orally doses of 0.36 mg/kg. Blood samples were collected pre-dose and 0.25, 0.5 (just before the infusion is stopped), 0.75, 1, 1.5, 2.5, 4, 8, 16, 24 hr post dose for i.v. administration group. Blood samples were also collected pre-dose, 0.5, 1, 2, 3, 4, 8, 16 and 24 hr after administration in orally dosing group.

[3] = Sprague-Dawley (SD), rat, plasma, 1.0 mg/kg iv
[4] = Sprague-Dawley (SD), rat, plasma, 5.0 mg/kg po
[5] = male, cynomolgus monkey, plasma, iv, 0.12 mg/kg
[6] = male, cynomolgus monkey, plasma, po, 0.36 mg/kg

T1 sequence (P43220 24-463): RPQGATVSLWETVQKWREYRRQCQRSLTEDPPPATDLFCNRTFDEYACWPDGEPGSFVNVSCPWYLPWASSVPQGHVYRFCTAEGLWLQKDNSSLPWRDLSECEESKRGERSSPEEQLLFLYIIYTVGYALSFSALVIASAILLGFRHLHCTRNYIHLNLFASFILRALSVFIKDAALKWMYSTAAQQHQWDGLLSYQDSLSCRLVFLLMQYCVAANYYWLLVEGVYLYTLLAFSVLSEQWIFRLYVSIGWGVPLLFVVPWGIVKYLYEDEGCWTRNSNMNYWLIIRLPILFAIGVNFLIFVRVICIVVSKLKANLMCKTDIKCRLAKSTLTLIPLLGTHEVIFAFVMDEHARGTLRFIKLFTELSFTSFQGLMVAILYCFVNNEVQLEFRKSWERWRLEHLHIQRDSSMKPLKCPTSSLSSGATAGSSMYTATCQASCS

EC50 (human GLP-1R): 0.059 µM
Structure (SMILES): Cc1cc(-n2nc3c(c2-n2ccn(-c4ccc5c(cnn5C)c4F)c2=O)[C@@H]2COC[C@H](C3)N2C(=O)c2cc3cc([C@@H]4CCOC(C)(C)C4)cc(F)c3n2[C@@]2(c3noc(=O)[nH]3)C[C@@H]2C)cc(C)c1F [Compound 706, 3-((1S,2S)-1-(5-((R)-2,2-dimethyltetrahydro-2H-pyran-4-yl)-7-fluoro-2-((4R,8S)-3-(3-(4-fluoro-1-methyl-1H-indazol-5-yl)-2-oxo-2,3-dihydro-1H-imidazol-1-yl)-2-(4-fluoro-3,5-dimethylphenyl)-2,4,5,7,8,9-hexahydro-4,8-epiminooxocino [5,4-c]pyrazole-10-carbonyl)-1H-indol-1-yl)-2-methylcyclopropyl)-1,2,4-oxadiazol-5 (4H)-one]

EC50 (human GLP-1R): 0.006 µM
Structure (SMILES): Cc1cc(-n2nc3c(c2-n2ccn(-c4ccc5c(cnn5C)c4F)c2=O)[C@@H]2CC[C@H](C3)N2C(=O)c2cc3cc([C@H]4CCOC(C)(C)C4)cc(F)c3n2[C@@]2(c3noc(=O)[nH]3)C[C@@H]2C)cc(C)c1F [Compound 711, 3-[(1S,2S)-1-[5-[(4S)-2,2-dimethyltetrahydropyran-4-yl]-7-fluoro-2-[(1S,8R)-4-(4-fluoro-3,5-dimethyl-phenyl)-3-[3-(4-fluoro-1-methyl-indazol-5-yl)-2-oxo-imidazol-1-yl]-4,5,11-triazatricyclo[6.2.1.02,6]undeca-2,5-diene-11-carbonyl]indol-1-yl]-2-methyl-cyclopropyl]-4H-1,2,4-oxadiazol-5-one]

Oral F ([1]; 5.0 mg/kg po vs 1.0 mg/kg iv): 11.2%
AUC(0-inf) [1, 3]: 6840 ng·h/mL
clearance [1, 3]: 2.47 mL/min/kg
half-life [1, 3]: 8.13 h
Vd ([1]; Sprague-Dawley (SD), rat, plasma, 1.0 mg/kg iv, read-out: Vdss): 1.42 L/kg
AUC(0-inf) [1, 4]: 3420 ng·h/mL
Cmax [1, 4]: 240 ng/mL
Tmax [1, 4]: 4 h
half-life [1, 4]: 7.44 h
Oral F ([2]; cynomolgus monkeys, 0.36 mg/kg po vs 0.12 mg/kg iv): 29.4%
AUC(0-inf) [2, 5]: 517 ng·h/mL
Vd [2, 5]: 0.846 L/kg
clearance [2, 5]: 3.98 mL/min/kg
half-life [2, 5]: 3.7 h
AUC(0-inf) [2, 6]: 456 ng·h/mL
Cmax [2, 6]: 79.5 ng/mL
Tmax [2, 6]: 1.33 h
half-life [2, 6]: 4.24 h
Structure (SMILES): Cc1cc(-n2nc3c(c2-n2ccn(-c4ccc5c(cnn5C)c4F)c2=O)[C@H](C)N(C(=O)c2cc4cc([C@H]5CCOC(C)(C)C5)ccc4n2[C@@]2(c4noc(=O)[nH]4)C[C@@H]2C)CC3)cc(C)c1F [Orforglipron, orforglipron, reference compound]

EC50 (human GLP-1R): 0.0025 µM
Structure (SMILES): Cc1cc(-n2nc3c(c2-n2ccn(-c4ccc5c(cnn5C)c4F)c2=O)[C@@H]2CCC[C@H](C3)N2C(=O)c2cc3cc([C@H]4CCOC(C)(C)C4)cc(F)c3n2[C@@]2(c3noc(=O)[nH]3)C[C@@H]2C)cc(C)c1F [Compound 707, 3-((1S,2S)-1-(5-((S)-2,2-dimethyltetrahydro-2H-pyran-4-yl)-7-fluoro-2-((4S,8R)-3-(3-(4-fluoro-1-methyl-1H-indazol-5-yl)-2-oxo-2,3-dihydro-1H-imidazol-1-yl)-2-(4-fluoro-3,5-dimethylphenyl)-4,5,6,7,8,9-hexahydro-2H-4,8-epiminocycloocta [c]pyrazole-10-carbonyl)-1H-indol-1-yl)-2-methylcyclopropyl)-1,2,4-oxadiazol-5 (4H)-one]

The remaining lines, values behind:

Structure (SMILES): Cc1cc(-n2nc3c(c2-n2ccn(-c4ccc5c(cnn5C)c4F)c2=O)[C@@H]2CC[C@H](C3)N2C(=O)c2c(F)c3cc(C4CCOC(C)(C)C4)ccc3n2[C@@]2(c3noc(=O)[nH]3)C[C@@H]2C)cc(C)c1F (stereo in doubt) [Compound 713, 3-[(1S,2S)-1-[5-[(4R)-2,2-dimethyltetrahydropyran-4-yl]-3-fluoro-2-[(1S,8R)-4-(4-fluoro-3,5-dimethyl-phenyl)-3-[3-(4-fluoro-1-methyl-indazol-5-yl)-2-oxo-imidazol-1-yl]-4,5,11-triazatricyclo[6.2.1.02,6]undeca-2,5-diene-11-carbonyl]indol-1-yl]-2-methyl-cyclopropyl]-4H-1,2,4-oxadiazol-5-one]
EC50 (human GLP-1R): 0.004 µM

Structure (SMILES): Cc1cc(-c2nn3c(c2-n2ccn(-c4ccc5c(cnn5C)c4F)c2=O)[C@H](C)N(C(=O)c2cc4cc([C@H]5CCOC(C)(C)C5)ccc4n2[C@@]2(c4noc(=O)[nH]4)C[C@@H]2C)CCC3)cc(C)c1F [Compound 703, 3-((1S,2S)-1-(5-((S)-2,2-dimethyltetrahydro-2H-pyran-4-yl)-2-((S)-3-(3-(4-fluoro-1-methyl-1H-indazol-5-yl)-2-oxo-2,3-dihydro-1H-imidazol-1-yl)-2-(4-fluoro-3,5-dimethylphenyl)-4-methyl-5,6,7,8-tetrahydro-4H-pyrazolo[1,5-a][1,4]diazepine-5-carbonyl)-1H-indol-1-yl)-2-methylcyclopropyl)-1,2,4-oxadiazol-5 (4H)-one]
EC50 (human GLP-1R): 0.0024 µM

Structure (SMILES): Cc1cc(-n2nc3c(c2-n2ccn(-c4ccc5c(cnn5C)c4F)c2=O)[C@@H]2COC[C@H](C3)N2C(=O)c2cc3cc(C4CCOC(C)(C)C4)cc(F)c3n2[C@@]2(c3noc(=O)[nH]3)C[C@@H]2C)cc(C)c1F (stereo partly drawn) [Compound 619, 3-((1S,2S)-1-(5-(2,2-dimethyltetrahydro-2H-pyran-4-yl)-7-fluoro-2-((4R,8S)-3-(3-(4-fluoro-1-methyl-1H-indazol-5-yl)-2-oxo-2,3-dihydro-1H-imidazol-1-yl)-2-(4-fluoro-3,5-dimethylphenyl)-2,4,5,7,8,9-hexahydro-4,8-epiminooxocino [5,4-c]pyrazole-10-carbonyl)-1H-indol-1-yl)-2-methylcyclopropyl)-1,2,4-oxadiazol-5(4H)-one]
EC50 (human GLP-1R): 0.0054 µM

Structure (SMILES): Cc1cc(-n2nc3c(c2-n2ccn(-c4ccc5c(cnn5C5CC5)c4F)c2=O)[C@@H]2COC[C@H](C3)N2C(=O)c2cc3cc([C@H]4CCOC(C)(C)C4)ccc3n2[C@@]2(c3noc(=O)[nH]3)C[C@@H]2C)cc(C)c1F [Compound 617, 3-((1S,2S)-1-(2-((4R,8S)-3-(3-(1-cyclopropyl-4-fluoro-1H-indazol-5-yl)-2-oxo-2,3-dihydro-1H-imidazol-1-yl)-2-(4-fluoro-3,5-dimethylphenyl)-2,4,5,7,8,9-hexahydro-4,8-epiminooxocino [5,4-c]pyrazole-10-carbonyl)-5-((S)-2,2-dimethyltetrahydro-2H-pyran-4-yl)-1H-indol-1-yl)-2-methylcyclopropyl)-1,2,4-oxadiazol-5 (4H)-one]
EC50 (human GLP-1R): 0.0025 µM

Structure (SMILES): Cc1cc(-n2nc3c(c2-n2ccn(-c4ccc5c(cnn5C)c4F)c2=O)[C@@H]2CC[C@H](C3)N2C(=O)c2cc3cc([C@H]4CCOC(C)(C)C4)ccc3n2[C@@]2(c3noc(=O)n3C)C[C@@H]2C)cc(C)c1F [Compound 613, 3-[(1S,2S)-1-[5-[(4S)-2,2-dimethyltetrahydropyran-4-yl]-2-[(1S,8R)-4-(4-fluoro-3,5-dimethyl-phenyl)-3-[3-(4-fluoro-1-methyl-indazol-5-yl)-2-oxo-imidazol-1-yl]-4,5,11-triazatricyclo[6.2.1.02,6]undeca-2,5-diene-11-carbonyl]indol-1-yl]-2-methyl-cyclopropyl]-4-methyl-1,2,4-oxadiazol-5-one]
EC50 (human GLP-1R): 0.0505 µM

Structure (SMILES): Cc1cc(-n2nc3c(c2-n2ccn(-c4ccc5c(cnn5C)c4F)c2=O)[C@@H]2CC[C@H](C3)N2C(=O)c2c(F)c3cc(C4CCOC(C)(C)C4)ccc3n2[C@@]2(c3noc(=O)[nH]3)C[C@@H]2C)cc(C)c1F (stereo in doubt) [Compound 712, 3-[(1S,2S)-1-[5-[(4S)-2,2-dimethyltetrahydropyran-4-yl]-3-fluoro-2-[(1S,8R)-4-(4-fluoro-3,5-dimethyl-phenyl)-3-[3-(4-fluoro-1-methyl-indazol-5-yl)-2-oxo-imidazol-1-yl]-4,5,11-triazatricyclo[6.2.1.02,6]undeca-2,5-diene-11-carbonyl]indol-1-yl]-2-methyl-cyclopropyl]-4H-1,2,4-oxadiazol-5-one]
EC50 (human GLP-1R): 0.112 µM

Structure (SMILES): Cc1cc(-n2nc3c(c2-n2ccn(-c4ccc5c(cnn5C)c4F)c2=O)[C@@H]2CCC[C@H](C3)N2C(=O)c2cc3cc([C@@H]4CCOC(C)(C)C4)cc(F)c3n2[C@@]2(c3noc(=O)[nH]3)C[C@@H]2C)cc(C)c1F [Compound 701, 3-((1S,2S)-1-(5-((R)-2,2-dimethyltetrahydro-2H-pyran-4-yl)-7-fluoro-2-((4S,8R)-3-(3-(4-fluoro-1-methyl-1H-indazol-5-yl)-2-oxo-2,3-dihydro-1H-imidazol-1-yl)-2-(4-fluoro-3,5-dimethylphenyl)-4,5,6,7,8,9-hexahydro-2H-4,8-epiminocycloocta [c]pyrazole-10-carbonyl)-1H-indol-1-yl)-2-methylcyclopropyl)-1,2,4-oxadiazol-5 (4H)-one]
EC50 (human GLP-1R): > 0.1 µM
